The text below walks through data of PMC8142021 (International Journal for Parasitology: Drugs and Drug …, 2021).

Data set [1] concerns L. infantum intracellular amastigotes in U937 macrophages. Put plainly: In vitro macrophage infection and intracellular amastigote assay. In kind it is cell-based, Leishmania infantum. As to conditions: infected U937 macrophages, 20 μM.
Data set [2] in a line: Determination of aqueous solubility. In kind it is physicochemical. As to conditions: phosphate buffer, pH 7, aqueous buffer, thermodynamic from solid.
The conditions of data set [3]: ref Vandermeulen et al., 2006; cited from earlier work.
The subject of data set [4] is L. infantum axenic amastigotes. Description: Axenic amastigote assay. In kind it is cell-based, Leishmania infantum.

Structures are written as SMILES. ≈ marks a conversion by molar mass, not a printed value. Entries after “also recorded” stand apart in the source; their conditions may differ.

In the case of `COc1ccc(S(=O)(=O)N(Cc2ccccc2)c2ccc(OC)nc2)cc1` [Compound 279, N-benzyl-4-methoxy-N-(6-methoxypyridin-3-yl)benzenesulfonamide], in data set [1], the “activity against intracellular amastigotes (in words)” value (“activity” below) was “inactive”.

Turning to `COc1cc(N)c(NS(=O)(=O)c2ccc(N(C)C)cc2)cc1OC` [Compound 35, N-(2-amino-4,5-dimethoxyphenyl)-4-(dimethylamino)benzenesulfonamide], the solubility (thermodynamic) (usually solubility found after equilibrating the solid with the medium) at 72 h in data set [2] stood at 118 µg/mL (≈ 336 µM). With `C[C@@H]1[C@H](O)[C@@H](C)/C=C/C=C/C=C/C=C/C=C/C=C/C=C/[C@H](O[C@@H]2O[C@H](C)[C@@H](O)[C@H](N)[C@@H]2O)C[C@@H]2O[C@](O)(C[C@@H](O)C[C@@H](O)[C@H](O)CC[C@@H](O)C[C@@H](O)CC(=O)O[C@H]1C)C[C@H](O)[C@H]2C(=O)O` [Amphotericin B], the aqueous solubility (commonly how much of the substance goes into solution per volume) in data set [3] was 1 µg/mL (≈ 1.08 µM).

With `COc1ccc(S(=O)(=O)Nc2c(C(=O)Nc3c(C(=O)O)cc(OC)c(OC)c3OC)cc(OC)c(OC)c2OC)cc1` [Compound 63B, 3,4,5-trimethoxy-2-(3,4,5-trimethoxy-2-((4-methoxyphenyl)sulfonamido)benzamido)benzoic acid], the thermodynamic solubility at 72 h in data set [2] turned out to be 1890 µg/mL (≈ 3110 µM).

Take `COc1ccc(S(=O)(=O)Nc2cc(C#N)ccc2OS(=O)(=O)c2ccc(OC)cc2)cc1` [Compound 276B, 4-cyano-2-((4-methoxyphenyl)sulfonamido)phenyl 4-methoxybenzenesulfonate]: the “Selectivity index Axenic amastigotes” value in data set [4] (IC50 cellular cytotoxicity (HeLa)/IC50 antileishmanial activity) is reported as 11.5. Further, in data set [1], the “activity” value is given as “active”. For the compound `COc1ccc(S(=O)(=O)Nc2cc(OC)c(NC(=O)CCl)cc2OC)cc1` [Compound 129, 2-Chloro-N-(2,5-dimethoxy-4-((4-methoxyphenyl)sulfonamido)phenyl)acetamide], the “Leishmania infantum Axenic amastigotes IC50 (μM)” value in data set [4] (48 h treatment, XTT) was “sub-micromolar”. In addition, the “activity” value in data set [1] is “active; also recorded: infection clearly interrupted”. For the compound `COc1ccc(NS(=O)(=O)c2ccc(N)cc2)cc1OC` [Compound 26, 4-Amino-N-(3,4-dimethoxyphenyl)benzenesulfonamide], in data set [2], the solubility (thermodynamic) at 72 h came to 55 µg/mL (≈ 178 µM).
